We go through eleven compounds from ChEMBL document CHEMBL1131666, “Discovery of a novel series of selective MMP inhibitors: identification of the gamma-sulfone-thiols” (Bioorg Med Chem Lett, 1999).

Molecules are shown by their SMILES. pIC50: −log10 of the molar value. A value given as a limit tells only on which side of the number the result lay.

One test addresses T1, Interstitial collagenase (Homo sapiens, UniProt P03956).
T1 sequence (P03956 whole entry): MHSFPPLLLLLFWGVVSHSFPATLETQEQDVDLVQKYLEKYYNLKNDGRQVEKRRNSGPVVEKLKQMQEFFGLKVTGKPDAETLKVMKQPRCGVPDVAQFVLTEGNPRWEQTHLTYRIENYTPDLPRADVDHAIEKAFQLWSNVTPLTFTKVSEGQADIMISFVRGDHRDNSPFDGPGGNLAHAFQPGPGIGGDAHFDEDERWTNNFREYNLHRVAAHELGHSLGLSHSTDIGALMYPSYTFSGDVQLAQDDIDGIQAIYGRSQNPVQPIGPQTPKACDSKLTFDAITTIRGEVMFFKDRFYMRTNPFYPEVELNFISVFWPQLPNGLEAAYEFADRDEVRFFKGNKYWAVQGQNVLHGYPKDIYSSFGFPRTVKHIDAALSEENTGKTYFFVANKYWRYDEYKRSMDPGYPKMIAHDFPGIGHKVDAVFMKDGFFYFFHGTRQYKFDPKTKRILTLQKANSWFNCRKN
In words: Inhibition of matrix metalloprotease-1 (MMP-1).

The target of the next test is Collagenase 3 (Homo sapiens, UniProt P45452). In words: Inhibition of Matrix metalloprotease-13 (MMP-13).
The target of another test is Neutrophil collagenase (Homo sapiens, UniProt P22894). In words: Inhibition of Matrix metalloprotease-8.
Neutrophil collagenase, sequence (P22894 whole entry): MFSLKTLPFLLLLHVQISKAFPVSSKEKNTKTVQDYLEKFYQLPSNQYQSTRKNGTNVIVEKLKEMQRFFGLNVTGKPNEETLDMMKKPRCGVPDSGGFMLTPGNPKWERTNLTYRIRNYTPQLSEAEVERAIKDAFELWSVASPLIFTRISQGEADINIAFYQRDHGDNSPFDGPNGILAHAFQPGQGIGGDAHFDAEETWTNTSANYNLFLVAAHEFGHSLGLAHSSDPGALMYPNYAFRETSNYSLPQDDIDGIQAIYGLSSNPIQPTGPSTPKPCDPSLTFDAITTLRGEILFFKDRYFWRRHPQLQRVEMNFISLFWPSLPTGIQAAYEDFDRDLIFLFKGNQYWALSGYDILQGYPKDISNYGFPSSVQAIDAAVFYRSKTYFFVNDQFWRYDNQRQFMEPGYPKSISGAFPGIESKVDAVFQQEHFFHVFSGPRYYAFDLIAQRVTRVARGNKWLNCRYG
In another test the target is Stromelysin-1 (Homo sapiens, UniProt P08254). Nature of the test: Inhibition of matrix metalloprotease-3 (MMP-3).
Stromelysin-1, sequence (P08254 whole entry): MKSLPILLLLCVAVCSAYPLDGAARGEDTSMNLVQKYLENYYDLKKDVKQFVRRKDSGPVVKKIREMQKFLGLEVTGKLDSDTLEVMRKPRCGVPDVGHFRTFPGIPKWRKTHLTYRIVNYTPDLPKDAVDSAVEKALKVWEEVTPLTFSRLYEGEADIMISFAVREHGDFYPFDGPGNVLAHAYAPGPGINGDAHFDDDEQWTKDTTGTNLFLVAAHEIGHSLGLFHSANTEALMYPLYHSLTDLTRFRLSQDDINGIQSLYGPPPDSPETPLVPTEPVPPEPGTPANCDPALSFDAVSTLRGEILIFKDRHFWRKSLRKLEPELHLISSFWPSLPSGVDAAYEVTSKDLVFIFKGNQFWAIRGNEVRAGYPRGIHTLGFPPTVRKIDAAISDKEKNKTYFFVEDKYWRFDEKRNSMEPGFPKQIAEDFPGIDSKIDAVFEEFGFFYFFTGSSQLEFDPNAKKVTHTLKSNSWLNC

Broadly, the pIC50 is the negative decadic logarithm of the IC50, by convention in mol/L. A high value points to a small IC50. As to `COc1ccc(S(=O)(=O)CCC(C)S)cc1` (stereo not drawn), the pIC50 was 5.10 at Interstitial collagenase and 7.49 at Collagenase 3.

With `COC(=O)C(S)CCS(=O)(=O)c1ccc(OC)cc1` (stereo not drawn), the pIC50 at Interstitial collagenase was 5.40.

Turning to `CCCC(CCS)S(=O)(=O)c1ccc(OC)cc1` (stereo not drawn), the pIC50 against Collagenase 3 is 8.22.

For the compound `COc1ccc(S(=O)(=O)CC(C)(C)CS)cc1`, on Interstitial collagenase, the pIC50 is < 5.00.

As for `CCCCC(S)CCS(=O)(=O)c1ccc(OC)cc1` (stereo not drawn), the pIC50 at Interstitial collagenase was < 5.00.

Consider `COc1ccc(S(=O)(=O)C[C@@H](C)CS)cc1`, for which the pIC50 at Interstitial collagenase is 5.30; on Collagenase 3 it was 6.60.

As to `COc1ccc(S(=O)(=O)C(CCS)c2ccccc2)cc1` (stereo not drawn), the pIC50 at Interstitial collagenase is < 5.00.

`O=S(=O)(CCCS)c1ccc(Oc2ccccc2)cc1`: the pIC50 on Interstitial collagenase is 5.82; against Neutrophil collagenase, 8.40; against Collagenase 3, 9.30; on Stromelysin-1, 6.30.

Consider `COc1ccc(S(=O)(=O)C[C@H](C)CS)cc1`, for which the pIC50 at Interstitial collagenase is < 5.00.

Regarding `O=S(=O)(CCCS)c1ccc(Sc2ccccc2)cc1`, the figures for the pIC50 at Interstitial collagenase, against Neutrophil collagenase and at Stromelysin-1 were < 5.00, 7.44 and 6.82, respectively.

`COc1ccc(S(=O)(=O)CCCS)cc1`: the pIC50 against Interstitial collagenase was < 5.00.
